Laboratory results: US12329799B2, “Peptidyl inhibitors of calcineurin-NFAT interaction” (Ohio State Innovation Foundation, priority 2018, dated 2025)
Positions of bridges follow the written chain, without caps; N, C: chain ends. Non-standard residues stand in square brackets, D forms with d. Residues, ends and D or L forms follow the SMILES beside them. Chains are numbered I, II in the order given. *: point of attachment. Benzoyl(2,3-Cl2) = O=C(c1cccc(Cl)c1Cl)*; 2Nal = N[C@@H](Cc1ccc2ccccc2c1)C(=O)O; Tle = CC(C)(C)[C@H](N)C(=O)O; AEEA = NCCOCCOCC(=O)O

Tests used:
[1] = system: Jurkat cells; assay: MTT assay, Jurkat; format: cell-based
Method: (§1) MTT Proliferation Assay. HeLa, Jurkat-Lucia, or H441 cells were seeded into a 96-well microplate (5000 cells per well) in full growth media and incubated at 37° C. overnight. A serial dilution of each compound was prepared in DPBS and then added to each well. The treated cells were incubated at 37° C. with 5% CO2 for 72 h. Following compound treatment, 10 μL of MTT stock solution was added to each well. After an additional 4 h at 37° C., 100 μL of SDS-HCl solubilizing solution was added to each well and the plate was returned to the incubator overnight at 37° C. A Tecan Infinite M1000 Pro microplate reader was used the following morning to measure the absorbance of the formazan product at 565 nm.

[2] = Serum stability assay; format: in vitro ADME; settings: 25% human serum, 37° C., 24 h, read-out: degradation in human serum
Method: Serum Stability Assay. Diluted human serum (25%) (H4522 human serum, Sigma) was centrifuged at 15,000 rpm for 10 min, and the supernatant was collected. A peptide stock solution was diluted into the supernatant to a final concentration of 5 μM and incubated at 37° C. At various time points (0-24 h), 200-μL aliquots were withdrawn and mixed with 100 μL of 15% trichloroacetic acid and incubated at 4° C. overnight. The final mixture was centrifuged at 15,000 rpm for 10 min in a microcentrifuge, and the supernatant was analyzed by reversed-phase HPLC equipped with a C18 column. The amount of remaining peptide (%) was determined by integrating the area underneath the peptide peak (monitored at 214 nm) and comparing with that from the peptide at time 0.

[3] = system: HeLa cells; assay: MTT assay, HeLa; format: cell-based; settings: MTT, 72 h
Method: as §1
Potential cytotoxicity of CNI101 (SEQ ID NO: 206) and CNI103 (SEQ ID NO: 208) was tested on HeLa cells by the MTT proliferation assay. HeLa cells were seeded into a 96-well microplate (5000 cells per well) in full growth media and incubated at 37° C. overnight. A serial dilution of each inhibitor was prepared in DPBS and then added to each well. The treated cells were incubated at 37° C. with 5% CO2 for 72 h. Following compound treatment, 10 μL of MTT stock solution was added to each well. After an additional 4 h at 37° C., 100 μL of SDS-HCl solubilizing solution was added to each well and the plate was returned to the incubator overnight at 37° C. A Tecan Infinite M1000 Pro microplate reader was used the following morning to measure the absorbance of the formazan product at 565 nm.

[4] = system: NFAT-mediated luciferase expression in Jurkat cells; assay: NFAT luciferase assay in Jurkat cells; format: cell-based; settings: qualitative
Method: In a separate experiment, CNI93 was also tested against Jurkat cells expressing a luciferase gene under the transcriptional control of NFAT.
NFAT Luciferase Assay. Jurkat-Lucia cells maintained in RPMI-1640 supplemented with 10% FBS, 1% penicillin/streptomycin (v/v/v) and 100 μg/mL normocin were harvested after a passage with 50 μg/mL selective antibiotic Zeocin at 300×RCF for 5 min. Cells were resuspended in warm RPMI-1640 with antibiotics but without FBS to a final density of 2×10^6 cells/mL and seeded into white-on-white cell-culture treated 96-well plates. To each well was added 10 μL of DPBS containing compounds which dilute to the desired concentrations followed by 170 μL of cell suspension […] and incubated at 37° C. for 2 h. The cells were induced by treatment with 50 ng/mL PMA and 3 μg/mL ionomycin, Ca^2+ salt in FBS to achieve a final FBS concentration of 10% in each well (with FBS only as control). The plate was incubated for an additional 4 h at 37° C., when 20 μL of each sample was withdrawn and mixed with 50 μL of Quanti-Luc assay solution. The luminescence of the mixture was immediately measured on a Tecan Infinite M1000 plate reader.

[5] = target: T1, Calcineurin (GST-CN) (Homo sapiens, UniProt Q08209); assay: FA-based competition with FITC-labeled peptide 14 for binding to CN; settings: unlabeled; inhibition of binding of peptide 14 to CN
T1 construct: made in house; host or cells: E. coli BL21
Method: Serial dilutions of competitor peptides were prepared in PBS with 0.01% Trition-X100 and then added to the incubation solution and equilibrated at RT with gentle mixing for 1 h. Samples were pipetted into 384-well black microplates and FP signal was measured using a TECAN Infinite M1000 plate reader and analyzed using GraphPad PRISM v.6.

T1 sequence (Q08209 2-347 limits assumed): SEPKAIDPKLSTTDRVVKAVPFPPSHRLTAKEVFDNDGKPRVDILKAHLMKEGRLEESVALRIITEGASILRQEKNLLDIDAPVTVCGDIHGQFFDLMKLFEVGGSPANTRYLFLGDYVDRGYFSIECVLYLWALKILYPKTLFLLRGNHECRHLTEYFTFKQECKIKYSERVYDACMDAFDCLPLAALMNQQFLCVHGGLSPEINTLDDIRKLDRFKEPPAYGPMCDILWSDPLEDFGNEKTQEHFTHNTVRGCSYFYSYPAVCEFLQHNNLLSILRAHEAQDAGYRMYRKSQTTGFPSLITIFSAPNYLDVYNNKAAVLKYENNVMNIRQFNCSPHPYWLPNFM

CC[C@H](C)[C@H](NC(=O)[C@@H](NC(=O)c1cccc(Cl)c1Cl)C(C)(C)C)C(=O)N[C@H](C(=O)N[C@H](C(=O)N[C@H](C(=O)N[C@@H](CCC(N)=O)C(=O)N[C@@H](Cc1c[nH]cn1)C(=O)N[C@H](CC(C)C)C(=O)N[C@@H](CO)C(=O)NCCOCCOCC(=O)N[C@@H](CCCCNC(=O)CC[C@@H]1NC(=O)[C@@H](CCCNC(=N)N)NC(=O)[C@H](CCCNC(=N)N)NC(=O)[C@@H](CCCNC(=N)N)NC(=O)[C@H](CCCNC(=N)N)NC(=O)[C@H](Cc2ccc3ccccc3c2)NC(=O)[C@@H](Cc2ccccc2)NC1=O)C(N)=O)[C@@H](C)O)[C@@H](C)CC)C(C)(C)C [CNI95] (I: {Benzoyl(2,3-Cl2)}-[Tle]I[Tle]ITQH[dL]S[AEEA]K-NH2 / II: cyclo([2Nal]R[dR]R[dR]E[dF]); amide I:11-II:6 (inferred); ring closure inferred)
concentrations decreasing cell viability [1]: ≥ 25 µM
metabolised at 24 h, 5 μM [2]: ~12%
concentrations decreasing cell viability [3]: ≥ 25 µM
attenuation of NFAT activity in Jurkat cells relative to CNI93 [4]: vastly superior
higher potency than CNI93 in FA-based competition assay [5]: ~5 fold
